Results: patent publication EP0007672A1, “Isocyanoalkenes, process and useful intermediates for their preparation, pharmaceutical and fungicidal preparations containing those isocyanoalkenes and the use of the fungicidal preparations in agriculture” (GIST-BROCADES N.V., priority 1978, dated 1980)
Converted amounts (≈) assume the structure as drawn. Where two headings read alike, the source gives them in different places.

Experiments:
Test in all cases: MIC (Minimum Inhibitory Concentration)
Assay type in all cases: cell-based
Pasteurella multocida = conditions: read-out: MIC values
Text: (§1) In addition they may be used for combatting plant diseases, in particular as fungicides. A list of MIC (Minimum Inhibitory Concentration) values for a number of microorganisms is listed herebelow. The figures in the column headings refer to the compounds prepared according to the experimental examples in comparison with the spectrum of 1-[2-(2,4-dichlorophenyl)-2-{(2,4-dichlorophenyl)-methoxy} -ethyl7-1H-imidazole (better known under the name of miconazole, c.f. Merck Index 9th Ed. page 6047) or natamycin (pimaricin, c.f. Merck Index 9th Ed. page 7233).

[1] = system: Streptococcus haemolyticus; conditions: read-out: MIC values
Text: as §1

Candida albicans = system: Candida albicans
Text: as §1

Trichophyton quickeaneum = conditions: read-out: MIC values
Text: as §1

Trichophyton violoceum = conditions: read-out: MIC values
Text: as §1

Trichophyton equinum = system: Trichophyton equinum
Text: as §1

Trichophyton rubrum = system: Trichophyton rubrum
Text: as §1

[2] = system: Trichophyton schoenleinii; conditions: read-out: MIC values
Text: as §1

[3] = system: Trichophyton mentagrophytus
Text: as §1

Trichophyton tonsurans = conditions: read-out: MIC values
Text: as §1

[4] = read-out: MIC values, Candida albicans A 7
[5] = read-out: MIC values, Candida albicans A 3140
[6] = read-out: MIC values, Candida albicans A 3141
[7] = read-out: MIC values, Candida albicans A 3142
[8] = read-out: MIC values, Candida albicans A 3143
[9] = read-out: MIC values, Candida albicans A 3144
[10] = read-out: MIC values, Candida albicans A 3145
[11] = read-out: MIC values, Candida albicans A 3165
[12] = read-out: MIC values, Candida albicans A 3166
[13] = read-out: MIC values, Candida albicans A 3167
[14] = read-out: MIC values, Candida albicans A 3168
[15] = read-out: MIC values, Candida albicans A 3169
[16] = read-out: MIC values, Candida albicans A 3171
[17] = read-out: MIC values, Candida albicans A 3184
[18] = read-out: MIC values, Candida albicans A 3190
[19] = read-out: MIC values, Candida albicans A 3191
[20] = read-out: MIC values, Candida albicans A 3192
[21] = read-out: MIC values, Candida albicans A 3194
[22] = read-out: MIC values, Candida albicans A 3196

## [C-]#[N+]C(=C1CCCCCC1)S(=O)(=O)c1ccc(C)cc1 [Example 18a, a-cycloheptylidene-a-(4-toluenesulphonyl)-methylisocyanide]
Pasteurella multocida; Pasteurella multocida
  MIC: 20 µg/mL (≈ 69.1 µM)
[1]; Streptococcus
  MIC: 10 µg/mL (≈ 34.6 µM)
Candida albicans; [4]
  MIC: 1.5 µg/mL (≈ 5.18 µM)
Candida albicans; [5]
  MIC: 1.5 µg/mL (≈ 5.18 µM)
Candida albicans; [6]
  MIC: 3 µg/mL (≈ 10.4 µM)
Candida albicans; [7]
  MIC: 1.5 µg/mL (≈ 5.18 µM)
Candida albicans; [8]
  MIC: 1.5 µg/mL (≈ 5.18 µM)
Candida albicans; [9]
  MIC: 3 µg/mL (≈ 10.4 µM)
Candida albicans; [10]
  MIC: 3 µg/mL (≈ 10.4 µM)
Candida albicans; [11]
  MIC: 1.5 µg/mL (≈ 5.18 µM)
Candida albicans; [12]
  MIC: 3 µg/mL (≈ 10.4 µM)
Candida albicans; [13]
  MIC: 0.75 µg/mL (≈ 2.59 µM)
Candida albicans; [14]
  MIC: 0.75 µg/mL (≈ 2.59 µM)
Candida albicans; [15]
  MIC: 3 µg/mL (≈ 10.4 µM)
Candida albicans; [16]
  MIC: 1.5 µg/mL (≈ 5.18 µM)
Candida albicans; [17]
  MIC: 3 µg/mL (≈ 10.4 µM)
Candida albicans; [18]
  MIC: 3 µg/mL (≈ 10.4 µM)
Candida albicans; [19]
  MIC: 3 µg/mL (≈ 10.4 µM)
Candida albicans; [20]
  MIC: 1.5 µg/mL (≈ 5.18 µM)
Candida albicans; [21]
  MIC: 1.5 µg/mL (≈ 5.18 µM)
Candida albicans; [22]
  MIC: 3 µg/mL (≈ 10.4 µM)

## [C-]#[N+]C(=C1CCCCC1)S(=O)(=O)c1ccccc1 [Example 25, a-cyclohexylidene-a-benzenesulphonylmethyl-isocyanide]
Trichophyton quickeaneum; Trichophyton
  MIC: 3 µg/mL (≈ 11.5 µM)
Pasteurella multocida; Pasteurella multocida
  MIC: 3 µg/mL (≈ 11.5 µM)
[1]; Streptococcus
  MIC: 25 µg/mL (≈ 95.7 µM)
Candida albicans; [4]
  MIC: 1.5 µg/mL (≈ 5.74 µM)
Candida albicans; [5]
  MIC: 1.5 µg/mL (≈ 5.74 µM)
Candida albicans; [6]
  MIC: 1.5 µg/mL (≈ 5.74 µM)
Candida albicans; [7]
  MIC: 1.5 µg/mL (≈ 5.74 µM)
Candida albicans; [8]
  MIC: 1.5 µg/mL (≈ 5.74 µM)
Candida albicans; [9]
  MIC: 3 µg/mL (≈ 11.5 µM)
Candida albicans; [10]
  MIC: 3 µg/mL (≈ 11.5 µM)
Candida albicans; [11]
  MIC: 3 µg/mL (≈ 11.5 µM)
Candida albicans; [12]
  MIC: 1.5 µg/mL (≈ 5.74 µM)
Candida albicans; [13]
  MIC: 3 µg/mL (≈ 11.5 µM)
Candida albicans; [14]
  MIC: 6 µg/mL (≈ 23 µM)
Candida albicans; [15]
  MIC: 1.5 µg/mL (≈ 5.74 µM)
Candida albicans; [16]
  MIC: 3 µg/mL (≈ 11.5 µM)
Candida albicans; [17]
  MIC: 1.5 µg/mL (≈ 5.74 µM)
Candida albicans; [18]
  MIC: 3 µg/mL (≈ 11.5 µM)
Candida albicans; [19]
  MIC: 6 µg/mL (≈ 23 µM)
Candida albicans; [20]
  MIC: 1.5 µg/mL (≈ 5.74 µM)
Candida albicans; [21]
  MIC: 3 µg/mL (≈ 11.5 µM)
Candida albicans; [22]
  MIC: 3 µg/mL (≈ 11.5 µM)
Trichophyton violoceum; Trichophyton
  MIC: 3 µg/mL (≈ 11.5 µM)
Trichophyton equinum; read-out: MIC values, Trichophyton equinum 182-76
  MIC: 6 µg/mL (≈ 23 µM)
Trichophyton equinum; read-out: MIC values, Trichophyton equinum 856-71
  MIC: 12.5 µg/mL (≈ 47.8 µM)
Trichophyton rubrum; read-out: MIC values, Trichophyton rubrum 218-65
  MIC: 0.4 µg/mL (≈ 1.53 µM)
Trichophyton rubrum; read-out: MIC values, Trichophyton rubrum 494-62
  MIC: 6 µg/mL (≈ 23 µM)
Trichophyton rubrum; read-out: MIC values, Trichophyton rubrum A 810
  MIC: 0.4 µg/mL (≈ 1.53 µM)
[2]; Trichophyton schoenleinii
  MIC: 0.8 µg/mL (≈ 3.06 µM)
[3]; read-out: MIC values, Trichophyton mentagrophytus 367-68
  MIC: 1.5 µg/mL (≈ 5.74 µM)
[3]; read-out: MIC values, Trichophyton mentagrophytus 421-67
  MIC: 1.5 µg/mL (≈ 5.74 µM)
[3]; read-out: MIC values, Trichophyton mentagrophytus A 3252
  MIC: 3 µg/mL (≈ 11.5 µM)
[3]; read-out: MIC values, Trichophyton mentagrophytus R 177
  MIC: 3 µg/mL (≈ 11.5 µM)
[3]; read-out: MIC values, Trichophyton mentagrophytus R 178
  MIC: 3 µg/mL (≈ 11.5 µM)
[3]; read-out: MIC values, Trichophyton mentagrophytus RRL 305
  MIC: 3 µg/mL (≈ 11.5 µM)
Trichophyton tonsurans; Trichophyton tonsurans
  MIC: 0.2 µg/mL (≈ 0.765 µM)

## [C-]#[N+]C(C1=CCSCC1)S(=O)(=O)c1ccc(C)cc1 (stereo not drawn) [Example 16b, a-(3,4-dehydrothian-4-yl)-a-(4-toluenesulphonyl)-methylisocyanide]
Trichophyton quickeaneum; Trichophyton quickeaneum A 2040
  MIC: 6 µg/mL (≈ 20.4 µM)
Pasteurella multocida; Pasteurella multocida A 723
  MIC: 3 µg/mL (≈ 10.2 µM)
[1]; Streptococcus haemolyticus A 1088
  MIC: 50 µg/mL (≈ 170 µM)
Candida albicans; Candida albicans A 7, read-out: MIC values
  MIC: 3 µg/mL (≈ 10.2 µM)
Candida albicans; Candida albicans A 3140, read-out: MIC values
  MIC: 3 µg/mL (≈ 10.2 µM)
Candida albicans; Candida albicans A 3141, read-out: MIC values
  MIC: 3 µg/mL (≈ 10.2 µM)
Candida albicans; Candida albicans A 3142, read-out: MIC values
  MIC: 3 µg/mL (≈ 10.2 µM)
Candida albicans; Candida albicans A 3143, read-out: MIC values
  MIC: 3 µg/mL (≈ 10.2 µM)
Candida albicans; Candida albicans A 3144, read-out: MIC values
  MIC: 6 µg/mL (≈ 20.4 µM)
Candida albicans; Candida albicans A 3145, read-out: MIC values
  MIC: 6 µg/mL (≈ 20.4 µM)
Candida albicans; Candida albicans A 3165, read-out: MIC values
  MIC: 3 µg/mL (≈ 10.2 µM)
Candida albicans; Candida albicans A 3166, read-out: MIC values
  MIC: 3 µg/mL (≈ 10.2 µM)
Candida albicans; Candida albicans A 3167, read-out: MIC values
  MIC: 3 µg/mL (≈ 10.2 µM)
Candida albicans; Candida albicans A 3168, read-out: MIC values
  MIC: 3 µg/mL (≈ 10.2 µM)
Candida albicans; Candida albicans A 3169, read-out: MIC values
  MIC: 3 µg/mL (≈ 10.2 µM)
Candida albicans; Candida albicans A 3171, read-out: MIC values
  MIC: 3 µg/mL (≈ 10.2 µM)
Candida albicans; Candida albicans A 3184, read-out: MIC values
  MIC: 3 µg/mL (≈ 10.2 µM)
Candida albicans; Candida albicans A 3190, read-out: MIC values
  MIC: 3 µg/mL (≈ 10.2 µM)
Candida albicans; Candida albicans A 3191, read-out: MIC values
  MIC: 6 µg/mL (≈ 20.4 µM)
Candida albicans; Candida albicans A 3192, read-out: MIC values
  MIC: 3 µg/mL (≈ 10.2 µM)
Candida albicans; Candida albicans A 3194, read-out: MIC values
  MIC: 3 µg/mL (≈ 10.2 µM)
Candida albicans; Candida albicans A 3196, read-out: MIC values
  MIC: 3 µg/mL (≈ 10.2 µM)
Trichophyton violoceum; Trichophyton violoceum 442-62
  MIC: 3 µg/mL (≈ 10.2 µM)
Trichophyton equinum; Trichophyton equinum 182-76, read-out: MIC values
  MIC: 6 µg/mL (≈ 20.4 µM)
Trichophyton equinum; Trichophyton equinum 856-71, read-out: MIC values
  MIC: 12.5 µg/mL (≈ 42.6 µM)
Trichophyton rubrum; Trichophyton rubrum 218-65, read-out: MIC values
  MIC: 1.5 µg/mL (≈ 5.11 µM)
Trichophyton rubrum; Trichophyton rubrum 494-62, read-out: MIC values
  MIC: 12.5 µg/mL (≈ 42.6 µM)
Trichophyton rubrum; Trichophyton rubrum A 810, read-out: MIC values
  MIC: 1.5 µg/mL (≈ 5.11 µM)
[2]; Trichophyton schoenleinii 435-63
  MIC: 1.5 µg/mL (≈ 5.11 µM)
[3]; Trichophyton mentagrophytus 367-68, read-out: MIC values
  MIC: 6 µg/mL (≈ 20.4 µM)
[3]; Trichophyton mentagrophytus 421-67, read-out: MIC values
  MIC: 6 µg/mL (≈ 20.4 µM)
[3]; Trichophyton mentagrophytus A 3252, read-out: MIC values
  MIC: 12.5 µg/mL (≈ 42.6 µM)
[3]; Trichophyton mentagrophytus R 177, read-out: MIC values
  MIC: 6 µg/mL (≈ 20.4 µM)
[3]; Trichophyton mentagrophytus R 178, read-out: MIC values
  MIC: 12.5 µg/mL (≈ 42.6 µM)
[3]; Trichophyton mentagrophytus RRL 305, read-out: MIC values
  MIC: 12.5 µg/mL (≈ 42.6 µM)
Trichophyton tonsurans; Trichophyton tonsurans 561-50
  MIC: 0.8 µg/mL (≈ 2.73 µM)
